# Where “and” joins values, the source holds several entries; their conditions need not be identical. Equal entries are not always repeated.
# Key:
# PBRM1 = biological target: T1, PBRM1 (Homo sapiens, UniProt Q86U86); experiment: Western blot of PBRM1 degradation in NCI-H1568 cells; assay type: cell-based; details: SuppFig3b, per replicate
# T1 construct: endogenous in cells; host or cells: NCI-H1568
# Experimental: Cells were seeded into 6-well plates 24 h before treatment. Next day, several wells were treated with compounds or DMSO as indicated, washed with PBS and lysed with lysis buffer (1% Triton X-100, 150 mM NaCl, 1 mM EDTA, 50 mM Tris pH 7.4, protease inhibitor cocktail (Roche), 50 units/mL benzonase nuclease (Sigma)). Lysates were cleared by centrifugation at 4 °C, at 15,800 × g for 10 min and the supernatants stored at −20 °C. Protein concentration was determined by BCA assay (Pierce) and the absorbance at 562 nm measured by spectrophotometry (NanoDrop ND1000). […] Western blot images were obtained through detection of SMARCA2 (Sigma #HPA029981 RRID:AB_10602406 1:1000), SMARCA4 (Abcam #ab108318 clone EPR3912 RRID:AB_10889900 1:1000), PBRM1 (Bethyl Laboratories #A301-591A RRID:AB_1078808 1:1000), β-actin (Cell Signalling #4970 clone 13E5 RRID:AB_2223172 1:2500) and GAPDH (Abcam #ab9485 RRID:AB_307275 1:2500) antibodies with IRDye 800CW donkey anti-rabbit secondary antibody (LI-COR #926-32213 RRID:AB_621848 1:10000) using a ChemiDoc MP imaging system (Bio-Rad). Western blots were quantified using Image Studio Lite (Licor, version 5.2) with normalisation to loading control and DMSO and further analysed using GraphPad Prism (version 9.2.0).
# A549 tumour xenograft = experiment: A549 xenograft tumour growth; assay type: in vivo, mouse; details: for Tumor volume: Fig4g, 80 mg/kg, qd, per animal
# Experimental: (§1) To establish subcutaneous tumours, mice were injected with 5 × 10^6 NCI-H1568 in PBS with 5% FCS or with 1 × 10^7 A549 cells in PBS with 5% FCS. Tumour diameters were measured with a caliper three times a week. The volume of each tumour (in mm^3) was calculated according to the formula [tumour volume = length × diameter^2 × π/6]. To monitor side effects of treatment, mice were inspected daily for abnormalities and body weight was determined daily after the start of treatment. Animals were sacrificed when the tumours reached a size of 1500 mm^3. Mice were randomised into treatment groups when the average tumour size reached ~210–220 mm^3. Group sizes were calculated individually for each tumour model based on tumour growth during model establishment experiments. A power analysis was performed using a sample size calculator (https://www.stat.ubc.ca/~rollin/stats/ssize/n2.html). For both models used in the study, 10 mice per group were used for each experiment. All administrations were dosed with 10 ml/kg (s.c. and oral). Control mice were dosed subcutaneously with 10% HP-β-CD in 50% Ringer solution and orally with 15% HP-β-CD, that means the control mouse treatment was corresponding to the solvent of the compounds. Compound 6 was dosed subcutaneously either in a d1-4 q3d, d6-8 q2d, d11-13 q2d treatment (Treatment 1) or a q3 or 4d treatment (Treatment 2).
# (§2) For the evaluation of the statistical significance of tumour growth inhibition, a one-tailed nonparametric Mann-Whitney-Wilcoxon U-test was performed, based on the hypothesis that an effect would only be measurable in one direction (i.e. expectation of tumour inhibition but not tumour stimulation). Analysis was performed on the day indicated for each experiment. The p values obtained from the U-test were adjusted using the Bonferroni-Holm correction. By convention, p values ≤0.05 indicate significance of differences.
# [1] = test system: NCI-H1568 tumour xenograft; experiment: NCI-H1568 xenograft tumour growth; assay type: in vivo, mouse; details: for Tumor volume: qd, individual animals; for TGI: NCI-H1568 xenograft, day 17
# Experimental: as §1, §2
# T1 sequence (Q86U86 whole entry): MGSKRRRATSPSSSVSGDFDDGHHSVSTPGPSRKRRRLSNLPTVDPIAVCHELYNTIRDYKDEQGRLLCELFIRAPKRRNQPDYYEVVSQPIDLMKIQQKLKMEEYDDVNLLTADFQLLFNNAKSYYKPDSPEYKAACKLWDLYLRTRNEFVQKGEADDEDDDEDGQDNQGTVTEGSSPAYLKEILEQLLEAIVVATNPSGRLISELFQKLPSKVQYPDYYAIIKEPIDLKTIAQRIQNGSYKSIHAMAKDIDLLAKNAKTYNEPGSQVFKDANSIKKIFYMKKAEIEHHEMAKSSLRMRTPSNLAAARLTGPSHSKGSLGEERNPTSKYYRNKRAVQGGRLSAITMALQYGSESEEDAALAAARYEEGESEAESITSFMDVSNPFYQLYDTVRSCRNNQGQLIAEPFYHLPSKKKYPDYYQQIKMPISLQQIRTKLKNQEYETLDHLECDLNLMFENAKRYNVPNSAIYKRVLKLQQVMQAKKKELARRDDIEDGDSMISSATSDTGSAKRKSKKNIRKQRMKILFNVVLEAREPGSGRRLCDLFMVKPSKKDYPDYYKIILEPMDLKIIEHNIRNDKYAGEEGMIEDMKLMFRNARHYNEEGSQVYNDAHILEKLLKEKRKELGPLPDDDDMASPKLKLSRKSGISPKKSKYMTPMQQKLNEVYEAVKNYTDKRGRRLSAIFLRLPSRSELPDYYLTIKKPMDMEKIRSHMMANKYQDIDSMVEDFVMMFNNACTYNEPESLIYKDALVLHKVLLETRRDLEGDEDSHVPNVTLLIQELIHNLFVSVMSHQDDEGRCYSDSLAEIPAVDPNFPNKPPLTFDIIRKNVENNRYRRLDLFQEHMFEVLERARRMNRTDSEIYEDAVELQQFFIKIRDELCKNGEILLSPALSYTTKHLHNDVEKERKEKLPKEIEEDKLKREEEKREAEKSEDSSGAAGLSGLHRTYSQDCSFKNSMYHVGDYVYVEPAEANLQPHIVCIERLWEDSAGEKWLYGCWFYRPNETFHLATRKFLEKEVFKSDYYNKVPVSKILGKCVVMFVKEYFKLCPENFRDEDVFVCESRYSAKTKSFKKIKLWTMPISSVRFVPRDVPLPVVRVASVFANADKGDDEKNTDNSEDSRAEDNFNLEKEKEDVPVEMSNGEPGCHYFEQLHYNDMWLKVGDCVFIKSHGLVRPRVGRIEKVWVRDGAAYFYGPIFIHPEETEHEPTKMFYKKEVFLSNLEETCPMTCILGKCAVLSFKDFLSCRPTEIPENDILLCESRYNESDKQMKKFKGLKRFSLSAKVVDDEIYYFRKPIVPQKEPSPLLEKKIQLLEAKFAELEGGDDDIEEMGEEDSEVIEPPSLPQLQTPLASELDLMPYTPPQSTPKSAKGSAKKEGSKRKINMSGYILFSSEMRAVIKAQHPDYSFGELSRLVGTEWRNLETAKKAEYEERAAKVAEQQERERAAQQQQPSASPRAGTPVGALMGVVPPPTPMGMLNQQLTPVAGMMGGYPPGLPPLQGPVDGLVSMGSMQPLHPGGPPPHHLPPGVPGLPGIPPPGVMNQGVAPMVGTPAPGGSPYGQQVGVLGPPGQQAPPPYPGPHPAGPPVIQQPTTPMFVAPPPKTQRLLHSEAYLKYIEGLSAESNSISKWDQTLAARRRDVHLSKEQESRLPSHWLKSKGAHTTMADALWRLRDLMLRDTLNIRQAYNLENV
structure (smiles),measurement,setting,value
Cc1ncsc1-c1ccc(C(CCC(C)CCN2CCC(c3ccc4c(c3)n(C3CCCC3)c3nc(=O)c5c(Br)cccc5n43)CC2)NC(=O)C2CC(O)CN2C(=O)C(NC(=O)C2(F)CC2)C(C)(C)C)cc1 (stereo not drawn) [ACBI2],"PBRM1 degradation, % DMSO",PBRM1; 1 nM,23.1362 % DMSO and 79.6814 % DMSO and 32.6932 % DMSO
same,"PBRM1 degradation, % DMSO",PBRM1; 10 nM,3.304 % DMSO and 17.3996 % DMSO and 0.6905 % DMSO
same,"PBRM1 degradation, % DMSO",PBRM1; 100 nM,2.804 % DMSO and 11.7415 % DMSO and 30.9172 % DMSO
same,"PBRM1 degradation, % DMSO",PBRM1; 1000 nM,14.3896 % DMSO and 34.4025 % DMSO and 4.024 % DMSO
same,TGI,"A549 tumour xenograft; A549 xenograft, 80 mg/kg p.o. once daily, day 21",47%
same,Tumor volume,A549 tumour xenograft; day 1,123.81 mm3 and 132.68 mm3 and 160.75 mm3 and 185.14 mm3 and 199.53 mm3 and 221.26 mm3 and 231.03 mm3 and 289.04 mm3 and 318.82 mm3 and 328.35 mm3
same,Tumor volume,A549 tumour xenograft; day 4,227.06 mm3 and 262.12 mm3 and 188.92 mm3 and 409.05 mm3 and 274.16 mm3 and 314.25 mm3 and 306.21 mm3 and 369.92 mm3 and 481.58 mm3 and 366.82 mm3
same,Tumor volume,A549 tumour xenograft; day 7,231.98 mm3 and 243.18 mm3 and 196.23 mm3 and 274.16 mm3 and 253.11 mm3 and 344.34 mm3 and 317.61 mm3 and 448.55 mm3 and 592.88 mm3 and 312.54 mm3
same,Tumor volume,A549 tumour xenograft; day 9,261.94 mm3 and 301.83 mm3 and 219.73 mm3 and 302.82 mm3 and 326.12 mm3 and 416.63 mm3 and 335.28 mm3 and 487.15 mm3 and 592.89 mm3 and 371.89 mm3
same,Tumor volume,A549 tumour xenograft; day 11,258.58 mm3 and 202.63 mm3 and 223.15 mm3 and 242.18 mm3 and 278.14 mm3 and 355.98 mm3 and 334.2 mm3 and 464.77 mm3 and 688.26 mm3 and 480.94 mm3
same,Tumor volume,A549 tumour xenograft; day 16,301.85 mm3 and 268.43 mm3 and 297.84 mm3 and 244.81 mm3 and 221.75 mm3 and 393.39 mm3 and 329.71 mm3 and 573.4 mm3 and 713.65 mm3 and 552.3 mm3
same,Tumor volume,A549 tumour xenograft; day 18,316.56 mm3 and 265.75 mm3 and 265.54 mm3 and 297.93 mm3 and 440.11 mm3 and 297.45 mm3 and 522.76 mm3 and 814.33 mm3 and 590.82 mm3
same,Tumor volume,A549 tumour xenograft; day 21,331.26 mm3 and 257.14 mm3 and 246.03 mm3 and 472.38 mm3 and 341.87 mm3 and 428.61 mm3 and 821.5 mm3 and 487.26 mm3
same,Tumor volume,A549 tumour xenograft; day 23,322.32 mm3 and 225.79 mm3 and 259.68 mm3 and 527.19 mm3 and 270.43 mm3 and 777.27 mm3 and 455.64 mm3
Cc1ncsc1-c1ccc([C@H](CCCCCN2CCC(c3ccc4c(c3)n(C3CCCC3)c3nc(=O)c5c(Br)cccc5n43)CC2)NC(=O)[C@@H]2C[C@@H](O)CN2C(=O)[C@@H](NC(=O)C2(F)CC2)C(C)(C)C)cc1 [compound 11],Tumor volume,"[1]; 30 mg/kg, Day 8",349.89 mm3 and 236.13 mm3 and 336.08 mm3 and 316.23 mm3 and 320.2 mm3 and 407.12 mm3 and 452.47 mm3 and 403.17 mm3 and 435.99 mm3 and 529.54 mm3
same,Tumor volume,"[1]; 30 mg/kg, Day 10",411.87 mm3 and 252.06 mm3 and 344.92 mm3 and 322.48 mm3 and 362.94 mm3 and 435.47 mm3 and 364.71 mm3 and 506.51 mm3 and 466.2 mm3 and 503.81 mm3
same,Tumor volume,"[1]; 30 mg/kg, Day 13",502.78 mm3 and 248.86 mm3 and 360.62 mm3 and 361.29 mm3 and 382.81 mm3 and 518.2 mm3 and 443.39 mm3 and 514.01 mm3 and 521.41 mm3 and 705.33 mm3
same,Tumor volume,"[1]; 30 mg/kg, Day 15",496.47 mm3 and 228.27 mm3 and 504.98 mm3 and 354.71 mm3 and 479.1 mm3 and 517.42 mm3 and 432.15 mm3 and 457.1 mm3 and 602.75 mm3 and 762.29 mm3
same,Tumor volume,"[1]; 30 mg/kg, Day 17",650.01 mm3 and 225.32 mm3 and 455.8 mm3 and 341.13 mm3 and 487.7 mm3 and 435.26 mm3 and 381.47 mm3 and 461.01 mm3 and 569.17 mm3 and 686.8 mm3
same,Tumor volume,"[1]; 100 mg/kg, Day 8",173.57 mm3 and 358.5 mm3 and 211.9 mm3 and 263.4 mm3 and 447.51 mm3 and 347.41 mm3 and 368.98 mm3 and 478.34 mm3 and 381.06 mm3 and 544.49 mm3
same,Tumor volume,"[1]; 100 mg/kg, Day 10",207.49 mm3 and 318.53 mm3 and 166.3 mm3 and 272.68 mm3 and 439.29 mm3 and 419.1 mm3 and 347.63 mm3 and 427.12 mm3 and 399.48 mm3 and 552.76 mm3
same,Tumor volume,"[1]; 100 mg/kg, Day 13",196.26 mm3 and 416.62 mm3 and 227.85 mm3 and 452.58 mm3 and 404.81 mm3 and 268.98 mm3 and 439.16 mm3 and 468.07 mm3 and 536.7 mm3
same,Tumor volume,"[1]; 100 mg/kg, Day 15",224.98 mm3 and 458.86 mm3 and 260 mm3 and 554.09 mm3 and 490.11 mm3 and 263.77 mm3 and 439.21 mm3 and 536.89 mm3 and 543.63 mm3
same,Tumor volume,"[1]; 100 mg/kg, Day 17",221.9 mm3 and 357.16 mm3 and 324.28 mm3 and 608.34 mm3 and 580.36 mm3 and 307.51 mm3 and 368.83 mm3 and 566.83 mm3 and 599.71 mm3
same,Tumor volume,"[1]; 100 mg/kg, Day 20",230.91 mm3 and 452.52 mm3 and 264.14 mm3
same,TGI,[1]; 30 mg/kg p.o. daily,64%
same,TGI,[1]; 100 mg/kg p.o. daily,76%
